Results taken from PubChem BioAssay (NCI).
Several values for one entry are separate records, joined by “and”; a condition that tells them apart may be missing. Identical values can stand only once.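 Compound exposure: 48 hours, 5 concentrations, 96-well plates. Here, GI50 denotes the concentration required for 50% inhibition of growth. TGI: concentration producing complete growth inhibition.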 Where a SMILES comes first, the peptide text is derived from it. [ ]: non-standard residue; d: D form.

Tests used:
Test in all cases: NCI anticancer screen, dose series, 48 h
[1] = test system: SF-295 CNS
[2] = test system: OVCAR-5 ovarian
[3] = test system: BT-549 breast
[4] = test system: OVCAR-4 ovarian
[5] = test system: UACC-62 melanoma
[6] = test system: A549 NSCLC
[7] = test system: U251 CNS
[8] = test system: COLO 205 colon
[9] = test system: SF-268 CNS
[10] = test system: TK-10 renal

O=C1CCCC1CC(CN1CCOCC1)Sc1nnnn1-c1ccccc1 (stereo not drawn)
TGI [1]: > 100 µM | TGI [2]: > 100 µM | TGI [3]: > 100 µM | TGI [4]: > 100 µM | TGI [5]: > 100 µM | TGI [6]: > 100 µM | TGI [7]: > 100 µM | TGI [8]: 33.1 µM

Cc1cc(C)[n+]2c(c1)C=CC2
TGI [1]: 71.8 µM | TGI [9]: > 100 µM | TGI [2]: > 100 µM | TGI [4]: > 100 µM | TGI [10]: > 100 µM | TGI [6]: > 100 µM | TGI [7]: > 100 µM | TGI [8]: 68.2 µM

N#Cc1sc2c(c1OC(=O)c1ccco1)c(=O)n(-c1ccccc1)c(=S)n2-c1ccccc1
TGI [1]: > 100 µM | TGI [9]: > 100 µM | TGI [3]: > 100 µM | TGI [4]: 81.2 µM | TGI [5]: 34.1 µM | TGI [10]: > 100 µM | TGI [6]: > 100 µM | TGI [7]: 80.9 µM | TGI [8]: 61.5 µM

CC(C)(C)OC(=O)N1C(=O)C2CCCC21 (stereo not drawn)
TGI [9]: > 100 µM | TGI [2]: > 100 µM | TGI [3]: > 100 µM | TGI [4]: > 100 µM | TGI [5]: > 100 µM | TGI [6]: > 100 µM | TGI [7]: > 100 µM | TGI [8]: > 100 µM

COP(=O)(CP(=O)(OC)OCCC(C)CCC=C(C)C)OC (stereo not drawn)
TGI [1]: > 100 µM | TGI [9]: > 100 µM | TGI [2]: > 100 µM | TGI [3]: > 100 µM | TGI [4]: > 100 µM | TGI [10]: > 100 µM | TGI [6]: > 100 µM | TGI [7]: 87.8 µM | TGI [8]: > 100 µM

CCCCCCc1ccc(CCCCCCCC(=O)O)o1
TGI [1]: > 100 µM | TGI [2]: > 100 µM | TGI [3]: > 100 µM | TGI [4]: > 100 µM | TGI [6]: > 100 µM | TGI [8]: > 100 µM

COc1ccc(/C(=N/O)c2ccccc2C2=Nc3ccccc3C(NCc3ccccc3)O2)cc1C (stereo not drawn)
TGI [1]: 67.3 µM | TGI [9]: > 100 µM | TGI [2]: > 100 µM | TGI [5]: 88.7 µM | TGI [6]: > 100 µM | TGI [7]: > 100 µM | TGI [8]: 38.9 µM

O=C1Sc2ccccc2C(=O)N2CCSC12 (stereo not drawn)
TGI [1]: > 100 µM | TGI [2]: > 100 µM | TGI [5]: > 100 µM | TGI [10]: > 100 µM | TGI [7]: > 100 µM | TGI [8]: > 100 µM

CC(C)C[C@H](NC(=O)[C@H](CC(C)C)NC(=O)[C@@H](Cc1c[nH]c2ccccc12)NC(=O)[C@H](Cc1ccccc1)NC(=O)[C@@H](Cc1c[nH]c2ccccc12)NC(=O)[C@H](CCC(N)=O)NC(=O)[C@@H](CCC(N)=O)NC(=O)[C@@H]1CCCN1C(=O)[C@@H](CCCCN)NC(=O)[C@H]1CCCN1C(=O)[C@H](N)CCCN=C(N)N)C(N)=O (H-[dR][dP][dK]P[dQ]Q[dW]F[dW]LL-NH2)
TGI [1]: > 100 µM | TGI [9]: > 100 µM | TGI [2]: > 100 µM | TGI [4]: > 100 µM | TGI [5]: > 100 µM | TGI [6]: > 100 µM | TGI [7]: > 93.2 µM | TGI [8]: > 100 µM

Cc1ccc2sc3c(NCCCN)nc4ccccc4c3c(=O)c2c1
GI50 [1]: 1.8 µM | TGI [1]: 3.32 µM | GI50 [9]: 1.74 µM | TGI [9]: 3.45 µM | GI50 [2]: 1.71 µM | TGI [2]: 3.27 µM | GI50 [3]: 16.5 µM | TGI [3]: 37.4 µM | GI50 [4]: 2.16 µM | TGI [4]: 4.69 µM | GI50 [5]: 1.74 µM | TGI [5]: 3.24 µM | GI50 [10]: 1.81 µM | TGI [10]: 3.52 µM | GI50 [8]: 2.19 µM | TGI [8]: 5.13 µM

N#Cc1c(/C=C/c2ccccc2)c2c([nH]c1=S)CCCCC2
TGI [1]: > 100 µM | TGI [9]: > 100 µM | TGI [2]: > 100 µM | TGI [4]: > 100 µM | TGI [10]: > 100 µM | TGI [6]: > 100 µM | TGI [7]: > 100 µM | TGI [8]: > 100 µM

COC(=O)/C1=C/C=C\C[C@@]2(C)CC(c3ccoc3)OC(=O)[C@@H]2CC[C@H]1C (stereo partly drawn)
TGI [1]: > 25 µM | TGI [2]: > 25 µM | TGI [3]: > 25 µM | TGI [4]: > 25 µM | TGI [5]: > 25 µM | TGI [10]: > 25 µM | TGI [6]: > 25 µM | TGI [7]: > 25 µM | TGI [8]: > 25 µM

O=C1CCC2(O)c3ccccc3C2Cc2ccccc21 (stereo not drawn)
TGI [1]: > 100 µM | TGI [9]: > 100 µM | TGI [5]: > 100 µM | TGI [10]: > 100 µM | TGI [7]: > 100 µM | TGI [8]: > 100 µM

COc1cc(C2c3cccc4cccc(c34)C3CCC(=O)N32)cc(OC)c1O (stereo not drawn)
TGI [1]: > 50 µM | TGI [2]: > 50 µM | TGI [3]: > 50 µM | TGI [4]: > 50 µM | TGI [5]: > 50 µM | TGI [6]: > 50 µM | TGI [7]: > 50 µM | TGI [8]: > 50 µM

CN(C)C(=O)N1N[C@H](c2ccccc2)[C@@H]1c1ccccc1
TGI [1]: > 100 µM | TGI [4]: > 100 µM | TGI [5]: > 100 µM | TGI [10]: > 100 µM | TGI [6]: > 100 µM | TGI [7]: > 100 µM | TGI [8]: > 100 µM

Cc1nc(N)c(N2CCN(S(=O)(=O)N(Cc3ccccc3)Cc3ccccc3)CC2)c(=O)[nH]1
TGI [1]: 65.8 µM | TGI [9]: 73.5 µM | TGI [2]: 73.5 µM | TGI [3]: > 100 µM | TGI [4]: 93.6 µM | TGI [10]: 59 µM | TGI [6]: > 100 µM | TGI [7]: 36.8 µM | TGI [8]: 65.9 µM

COC(=O)/C=C1\C(CO[Si](C)(C)C(C)(C)C)OC(n2cc(C)c(=O)n(C)c2=O)C1O[Si](C)(C)C(C)(C)C (stereo not drawn)
TGI [1]: > 100 µM | TGI [9]: > 100 µM | TGI [2]: > 100 µM | TGI [5]: > 100 µM | TGI [10]: > 100 µM | TGI [6]: > 100 µM | TGI [7]: > 100 µM | TGI [8]: > 100 µM

CCCCCc1cc2cc3c(c(O)c2c(=O)[nH]1)C1(CCC3)C(=O)c2c(O)ccc(O)c2C1=O
TGI [1]: > 100 µM | TGI [9]: > 100 µM | TGI [2]: > 100 µM | TGI [3]: > 100 µM | TGI [4]: > 100 µM | TGI [10]: > 100 µM | TGI [6]: > 100 µM | TGI [7]: > 100 µM | TGI [8]: > 100 µM

N#Cc1ccc(-c2ccc(Cl)cc2)n(C2OC(CO)C(O)C(O)C2O)c1=S (stereo not drawn)
TGI [1]: > 100 µM and 17.9 µM | GI50 [9]: > 100 µM and 39.6 µM | TGI [9]: > 100 µM | TGI [2]: > 100 µM | GI50 [3]: > 100 µM and 24.9 µM | TGI [3]: > 100 µM | TGI [4]: > 100 µM | TGI [5]: > 100 µM | GI50 [10]: > 100 µM and 49 µM | TGI [10]: > 100 µM | TGI [6]: > 100 µM | GI50 [7]: > 100 µM and 20 µM | TGI [7]: > 100 µM

CC1(C)CC(=O)c2c(N)n[nH]c2C1
TGI [1]: > 100 µM | TGI [2]: > 100 µM | TGI [3]: > 100 µM | TGI [4]: > 100 µM | TGI [5]: > 100 µM | TGI [6]: > 100 µM | TGI [7]: > 100 µM | TGI [8]: > 100 µM

Oc1ccc(-c2nc3cc(C(F)(F)F)ccc3s2)cc1
TGI [1]: 28.2 µM | TGI [9]: 30.8 µM | TGI [2]: 30.9 µM | TGI [3]: 28.5 µM | TGI [5]: 27.2 µM | TGI [10]: 33.1 µM | TGI [6]: 29.7 µM | TGI [7]: 30.5 µM | TGI [8]: 33.1 µM

O=C(CC(=O)N1N=C(c2ccccc2)C(N=Nc2ccc(S(=O)(=O)CCOS(=O)(=O)O)cc2)C1=O)Nc1ccc(Cl)cc1 (stereo not drawn)
TGI [1]: > 100 µM | TGI [9]: > 100 µM | TGI [2]: > 100 µM | TGI [3]: > 100 µM | TGI [5]: > 100 µM | TGI [10]: > 100 µM | TGI [6]: > 100 µM | TGI [7]: > 100 µM | TGI [8]: > 100 µM
